Measured values published in PMC11604048, “Constrained TACC3 peptidomimetics for a non-canonical protein–protein interface elucidate allosteric communication in Aurora-A kinase” (Chemical Science, 2024).
Like-named read-outs stand apart in the source and are kept apart here. *1 amine or outer side, *2 acyl side, *3 side chain or, on linkers, in order; H or OH if unused. Where a SMILES comes first, the peptide text is derived from it. Bridges are numbered along the chain shown (N, C = ends). [ ]: non-standard residue; d: D form. The star is where a group is joined. 5FAM = O=C1OC2(c3ccc(O)cc3Oc3cc(O)ccc32)c2ccc(C(=O)*)cc21; Biphenyl(4,4'-CH2)2 = c1cc(-c2ccc(C[*:2])cc2)ccc1C[*:1]; Pro(trans-4-F) = O=C(O)[C@@H]1C[C@@H](F)CN1; Phe(4-Br) = N[C@@H](Cc1ccc(Br)cc1)C(=O)O; Phe(4-I) = N[C@@H](Cc1ccc(I)cc1)C(=O)O; Ahx = NCCCCCC(=O)O

Legend:
[1] = target: T1, Aurora-A122-403-C290A/C393A (Homo sapiens, UniProt O14965, C290A/C393A); experiment: FA direct binding assay (Aurora-A titrated into FAM-Ahx-labelled peptide); parameters: ΔG: unit not given here; conditions: for ΔG: Table S6, from direct FA titration, n = 6
T1 construct: Human Aurora-A kinase domain 122-403 wild-type or C290A/ C393A mutant; His tag (pET30TEV vector) (N, cleaved yes); made in house; host or cells: E. coli RIL, co-expressed with lambda phosphatase (Aurora-A); tracer by solid phase synthesis
T1 sequence (O14965 122-403 C290A/C393A): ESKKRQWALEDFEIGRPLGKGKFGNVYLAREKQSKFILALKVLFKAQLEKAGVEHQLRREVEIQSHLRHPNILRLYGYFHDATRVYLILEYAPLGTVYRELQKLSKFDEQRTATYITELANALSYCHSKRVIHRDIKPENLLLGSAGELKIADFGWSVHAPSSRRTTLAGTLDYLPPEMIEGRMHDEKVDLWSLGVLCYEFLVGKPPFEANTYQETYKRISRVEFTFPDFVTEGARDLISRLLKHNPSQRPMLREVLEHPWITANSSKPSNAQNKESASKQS
Description: Fluorescence anisotropy (FA) assays – General information.
All assays were performed using 384-well plates(Greiner Bio-one, UK). […]
produced as described previously.11 All samples were prepared in 25 mM Tris,150 mM NaCl, 5 mM MgCl2, […]
(PerkinElmer; Waltham, MA, USA).The parameters were set as follows: Excitation wavelength = 480 nm […]
Measured data were processed and analysed as previously described.12 Specifically, the perpendicular intensity (P) and parallel intensity (S) were subtracted by the control values and used for calculations of intensity and anisotropy using the following Equations 1, 2, 3, 4, and 5:
I= (2PG) + S Eq. (SI − 5)
r = (S − PG) Eq. (SI − 6)
L = r − r௠௜௡ Eq. (SI − 7)
y = (k + x + [FL]) − ඥ(k + x + [FL]2 − 4 ∗ x ∗ [FL]) Eq. (SI − 8)
y = r + r௠௜௡ − r௠௔௫ Eq. (SI − 9)
Where I = total intensity; P = perpendicular intensity; S = parallel intensity; G = instrument factor; r = anisotropy; Lb = ligand bound fraction; λ = change in intensity between bound and unbound states which […]
FA direct binding assays. […]
starting from 700 μM, diluted over 24 points in a 1/2 regime using the FAM-Ahx-labeled peptides at a final fixed concentration of 50 nM per well.

[2] = target: T1, Aurora-A122-403-C290A/C393A; experiment: Isothermal titration calorimetry (ITC); assay type: binding; conditions: single titration
Description: Isothermal titration calorimetry (ITC). ITC experiments were carried out using a MicroCal PEAQ-ITC system (Malvern Panalytical) at 25 °C. A stock solution of Aurora-A 122-403-290A/C393A was dialyzed into ITC buffer overnight (25 mM Tris buffer, pH= 7.5; 150 mM NaCl; 5 mM MgCl2; 5 % v/v glycerol), and the same buffer was employed to resuspend a solid portion of the testing peptides. For each experiment, initially, the cell was filled with 275 µl of Aurora-A122-403-290A/C393A (46 μM) and the syringe was loaded with the corresponding peptide at 1.25 mM concentration. An initial injection of 0.5 μL was then followed by 13 injections of 3 μL, every 150 s, with a constant syringe rotation speed of 750 rpm throughout. The signal for the enthalpy of dilution of each peptide into buffer was independently measured in a control titration experiment and then subtracted from the experimental binding traces. The Kd, ΔG°, ΔH° and -TΔS° values were determined via the MicroCal PEAQ-ITC analysis software (Malvern Paranalytical) using a single-site binding model. […]

[3] = target: T1, Aurora-A122-403-C290A/C393A; experiment: Competition FA assay against FAM-Ahx-TACC3 522-536 tracer; assay type: binding
[4] = Table S6, direct FA titration, 50 nM fluorescein-labelled peptide, Tris buffer pH 7.5, mean ± SD, n = 6, read-out: Kd
[5] = 50 nM fluorescein-labelled peptide, mean ± SD
[6] = direct FA titration of Aurora-A122-403-C290A/C393A into 50 nM FAM-Ahx-labelled peptide, 25 mM Tris, 150 mM NaCl, 5 mM MgCl2, pH 7.5, 25 °C, mean ± SD, n = 3, read-out: Kd

CC(C)C[C@H](NC(=O)[C@@H](NC(=O)[C@@H]1CSCc2ccc(cc2)-c2ccc(cc2)CSC[C@H](NC(=O)[C@H](CCC(=O)O)NC(=O)[C@H](CCC(=O)O)NC(=O)[C@H](CCCCN)NC(=O)[C@H](CC(C)C)NC(=O)[C@H](CCC(=O)O)NC(=O)[C@H](CC(C)C)NC(=O)CCCCCNC(=O)c2ccc3c(c2)C(=O)OC32c3ccc(O)cc3Oc3cc(O)ccc32)C(=O)N[C@@H](Cc2ccc(Br)cc2)C(=O)N[C@@H](CCCNC(=N)N)C(=O)N[C@@H](CC(=O)O)C(=O)N2C[C@H](F)C[C@H]2C(=O)N[C@@H](C)C(=O)N1)C(C)C)C(N)=O [FAM-Ahx-TACC3 518-532-S/E-Bph-BrF/fP] ({5FAM-Ahx}-LELKEEC[Phe(4-Br)]RD[Pro(trans-4-F)]ACVL-NH2; linker 7-13 via Biphenyl(4,4'-CH2)2)
Kd [1, 4]: 0.62 ± 0.15 µM | ΔG [1, 5]: -35.5 ± 0.6

CC(C)C[C@H](NC(=O)[C@@H](NC(=O)[C@@H]1CSCc2ccc(cc2)-c2ccc(cc2)CSC[C@H](NC(=O)[C@H](CCC(=O)O)NC(=O)[C@H](CCC(=O)O)NC(=O)[C@H](CCCCN)NC(=O)[C@H](CC(C)C)NC(=O)[C@H](CCC(=O)O)NC(=O)[C@H](CC(C)C)NC(=O)CCCCCNC(=O)c2ccc3c(c2)C(=O)OC32c3ccc(O)cc3Oc3cc(O)ccc32)C(=O)N[C@@H](Cc2ccc(I)cc2)C(=O)N[C@@H](CCCNC(=N)N)C(=O)N[C@@H](CC(=O)O)C(=O)N2C[C@H](F)C[C@H]2C(=O)N[C@@H](C)C(=O)N1)C(C)C)C(N)=O [FAM-Ahx-TACC3 518-532-S/E-Bph-IF/fP] ({5FAM-Ahx}-LELKEEC[Phe(4-I)]RD[Pro(trans-4-F)]ACVL-NH2; linker 7-13 via Biphenyl(4,4'-CH2)2)
Kd [1, 4]: 0.9 ± 0.2 µM | ΔG [1, 5]: -34.6 ± 0.6 | Kd [1, 6]: 0.8 ± 0.2 µM

CC(=O)N[C@@H](CCC(=O)O)C(=O)N[C@@H](CCC(=O)O)C(=O)N[C@@H](CO)C(=O)N[C@@H](Cc1ccccc1)C(=O)N[C@@H](CCCNC(=N)N)C(=O)N[C@@H](CC(=O)O)C(=O)N1CCC[C@H]1C(=O)N[C@@H](C)C(=O)N[C@@H](CCC(=O)O)C(=O)N[C@H](C(=O)N[C@@H](CC(C)C)C(=O)NCC(=O)N[C@H](C(=O)NCC(=O)N[C@@H](C)C(N)=O)[C@@H](C)O)C(C)C [TACC3 522-536]
Kd ([2]; ITC 25 °C, Aurora-A 46 µM in cell, Ac-capped peptide 1.25 mM, 25 mM Tris, 150 mM NaCl, 5 mM MgCl2, 5% v/v glycerol, pH 7.5, N restrained fit (N = 1)): 57.4 µM | Kd ([2]; ITC as E13, N unrestrained fit): 58.6 µM

CC(C)C[C@H](NC(=O)[C@@H](NC(=O)[C@H](CCC(=O)O)NC(=O)[C@H](C)NC(=O)[C@@H]1CCCN1C(=O)[C@H](CC(=O)O)NC(=O)[C@H](CCCNC(=N)N)NC(=O)[C@H](Cc1ccccc1)NC(=O)[C@H](CO)NC(=O)[C@H](CCC(=O)O)NC(=O)[C@H](CCC(=O)O)NC(=O)CCCCCNC(=O)c1ccc2c(c1)C(=O)OC21c2ccc(O)cc2Oc2cc(O)ccc21)C(C)C)C(N)=O [FAM-Ahx-TACC3 522-532] ({5FAM-Ahx}-EESFRDPAEVL-NH2)
Kd [1, 6]: 7.1 ± 0.8 µM

CC(C)C[C@H](NC(=O)[C@@H](NC(=O)[C@H](CCC(=O)O)NC(=O)[C@H](C)NC(=O)[C@@H]1CCCN1C(=O)[C@H](CC(=O)O)NC(=O)[C@H](CCCNC(=N)N)NC(=O)[C@H](Cc1ccccc1)NC(=O)[C@H](CO)NC(=O)[C@H](CCC(=O)O)NC(=O)[C@H](CCC(=O)O)NC(=O)CCCCCNC(=O)c1ccc2c(c1)C(=O)OC21c2ccc(O)cc2Oc2cc(O)ccc21)C(C)C)C(=O)NCC(=O)N[C@H](C(=O)NCC(=O)N[C@@H](C)C(N)=O)[C@@H](C)O [FAM-Ahx-TACC3 522-536]
Kd ([1]; SD): 10.5 ± 1.13 µM

CC(C)C[C@H](NC(=O)[C@H](Cc1ccc(O)cc1)NC(=O)[C@H](CC(=O)O)NC(=O)[C@@H](NC(=O)[C@H](CCC(=O)O)NC(=O)[C@H](C)NC(=O)CNC(=O)[C@@H](NC(=O)CNC(=O)[C@H](CC(C)C)NC(=O)[C@@H](NC(=O)[C@H](CCC(=O)O)NC(=O)[C@H](C)NC(=O)[C@@H]1CCCN1C(=O)[C@H](CC(=O)O)NC(=O)[C@H](CCCNC(=N)N)NC(=O)[C@H](Cc1ccccc1)NC(=O)[C@H](CO)NC(=O)[C@H](CCC(=O)O)NC(=O)[C@H](CCC(=O)O)NC(=O)CCCCCNC(=O)c1ccc2c(c1)C(=O)OC21c2ccc(O)cc2Oc2cc(O)ccc21)C(C)C)[C@@H](C)O)C(C)C)C(=O)N[C@@H](CCC(=O)O)C(N)=O [FAM-Ahx-TACC3 522-542] ({5FAM-Ahx}-EESFRDPAEVLGTGAEVDYLE-NH2)
Kd [1, 6]: 4.5 ± 0.2 µM

CC(C)C[C@H](NC(=O)[C@H](Cc1ccc(O)cc1)NC(=O)[C@H](CC(=O)O)NC(=O)[C@@H](NC(=O)[C@H](CCC(=O)O)NC(=O)[C@H](C)NC(=O)CNC(=O)[C@@H](NC(=O)CNC(=O)[C@H](CC(C)C)NC(=O)[C@@H](NC(=O)[C@H](CCC(=O)O)NC(=O)[C@H](C)NC(=O)[C@@H]1CCCN1C(=O)[C@H](CC(=O)O)NC(=O)[C@H](CCCNC(=N)N)NC(=O)[C@H](Cc1ccccc1)NC(=O)[C@H](CO)NC(=O)[C@H](CCC(=O)O)NC(=O)[C@H](CCC(=O)O)NC(=O)CCCCCNC(=O)c1ccc2c(c1)C(=O)OC21c2ccc(O)cc2Oc2cc(O)ccc21)C(C)C)[C@@H](C)O)C(C)C)C(=O)N[C@@H](CCC(=O)O)C(=O)N[C@@H](CCC(N)=O)C(=O)N[C@@H](Cc1ccccc1)C(=O)NCC(=O)N[C@H](C(=O)N[C@@H](CO)C(=O)N[C@@H](CO)C(=O)N[C@@H](Cc1ccccc1)C(=O)N[C@@H](CCCCN)C(=O)N[C@@H](CCC(=O)O)C(=O)N[C@@H](CO)C(N)=O)[C@@H](C)O [FAM-Ahx-TACC3 522-552] ({5FAM-Ahx}-EESFRDPAEVLGTGAEVDYLEQFGTSSFKES-NH2)
Kd [1, 6]: 5.2 ± 0.5 µM

CC(=O)N[C@@H](CCC(=O)O)C(=O)N[C@@H](CCC(=O)O)C(=O)N[C@@H](CO)C(=O)N[C@@H](Cc1ccccc1)C(=O)N[C@@H](CCCNC(=N)N)C(=O)N[C@@H](CC(=O)O)C(=O)N1CCC[C@H]1C(=O)N[C@@H](CS)C(=O)N[C@@H](CCC(=O)O)C(=O)N[C@H](C(=O)N[C@@H](CS)C(=O)NCC(=O)N[C@H](C(=O)NCC(=O)N[C@@H](C)C(N)=O)[C@@H](C)O)C(C)C [TACC3 522-536 A529C/L532C (red)] (Ac-EESFRDPCEVCGTGA-NH2)
IC50 ([3]; as E1, free-sulfhydryl (reduced) species, DTT 5 mM in buffer, WT control (+DTT), mean ± SD, n = 3, read-out: IC50 (red)): ≥ 500 µM

CC(=O)N[C@@H](CCC(=O)O)C(=O)N[C@@H](CCC(=O)O)C(=O)N[C@@H](CO)C(=O)NC(C)(Cc1ccccc1)C(=O)N[C@@H](CCCNC(=N)N)C(=O)N[C@@H](CC(=O)O)C(=O)N1CCC[C@H]1C(=O)N[C@@H](C)C(=O)N[C@@H](CCC(=O)O)C(=O)N[C@H](C(=O)N[C@@H](CC(C)C)C(=O)NCC(=O)N[C@H](C(=O)NCC(=O)N[C@@H](C)C(N)=O)[C@@H](C)O)C(C)C (stereo partly drawn) [TACC3 522-536_(α-Me) -525F]
IC50 ([3]; read-out: IC50): ≥ 500 µM

CC(=O)N[C@@H](CCC(=O)O)C(=O)N[C@@H](CCC(=O)O)C(=O)N[C@@H](CO)C(=O)N[C@@H](Cc1ccccc1)C(=O)N[C@H]1CSCc2ccc(cc2)-c2ccc(cc2)CSC[C@@H](C(=O)N[C@@H](CC(C)C)C(=O)NCC(=O)N[C@H](C(=O)NCC(=O)N[C@@H](C)C(N)=O)[C@@H](C)O)NC(=O)[C@H](CCC(=O)O)NC(=O)[C@H](C)NC(=O)[C@@H]2CCCN2C(=O)[C@H](CC(=O)O)NC1=O [TACC3 522-536 R526C/V531C (Bph)] (Ac-EESFCDPAECLGTGA-NH2; linker 5-10 via Biphenyl(4,4'-CH2)2)
IC50 ([3]; as E1, Table S3 column (Bph): biphenyl-constrained species, WT value is an individual replica control assay, mean ± SD, n = 3, SD, read-out: IC50 (Bph)): 249 ± 43 µM
